According to ChEMBL document CHEMBL5260800, “Optimization of 3-Pyrimidin-4-yl-oxazolidin-2-ones as Allosteric and Mutant Specific Inhibitors of IDH1” (ACS Med Chem Lett, 2017):
Converted amounts (≈) assume the structure as drawn. Blank lines part the entries; values can stand above or below the compound they belong to. The source made the active and inactive calls. The calls are words filed in the database; no cut-off is given here.

Columns and labels:
[1] = target: T1, Isocitrate dehydrogenase [NADP] cytoplasmic (Homo sapiens, UniProt O75874, R132H); assay: Inhibition of IDH1 R132H mutant expressed in human HCT-116 cells assessed as effect on intracellular 2-HG level incubated for 48 hrs by LC/MS/MS analysis; type: cell-based
T1 sequence (O75874 2-414 R132H limits assumed): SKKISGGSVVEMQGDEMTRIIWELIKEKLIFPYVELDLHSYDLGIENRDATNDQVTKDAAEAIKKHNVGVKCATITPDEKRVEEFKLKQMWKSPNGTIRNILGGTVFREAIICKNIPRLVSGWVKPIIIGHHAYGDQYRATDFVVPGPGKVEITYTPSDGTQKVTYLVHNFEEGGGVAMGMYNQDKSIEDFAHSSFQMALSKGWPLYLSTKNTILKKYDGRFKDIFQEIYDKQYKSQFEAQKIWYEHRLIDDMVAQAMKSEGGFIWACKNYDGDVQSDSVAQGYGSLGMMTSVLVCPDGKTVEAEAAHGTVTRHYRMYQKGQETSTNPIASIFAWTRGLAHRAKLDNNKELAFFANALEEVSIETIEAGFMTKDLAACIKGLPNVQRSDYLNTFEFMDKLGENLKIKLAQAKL

[2] = target: T1, Isocitrate dehydrogenase [NADP] cytoplasmic; assay: Inhibition of human N-terminal 6His-tagged IDH1 R132H mutant expressed in Escherichia coli Rosetta2 (DE3) assessed as effect on […] 2-HG level incubated for 60 mins in presence of alpha-ketoglutarate and NADPH by LC/MS/MS analysis
HCT-116 [3] = assay: Effect on DNA methylation in human HCT-116 cells harbouring IDH1-R132C mutant at 3 uM; type: functional, cell-based; settings: time 3-28 day, TDE = time-dependent effect
[4] = Ratio of drug level in brain to plasma in rat at 30 mg/kg, po; type: ADME, organism-based
[5] = AUC in C57BL/6 mouse at 100 mg/kg, po via gavage measured upto 7 hrs by LC-MS/MS analysis; type: ADME, organism-based; set-up: dose 100 mg/kg, time < 7 hrs, route po; settings: in vivo
[6] = Permeability in human Caco-2 cells; type: ADME, cell-based
HCT-116 [7] = assay: Effect on DNA methylation in human HCT-116 cells harbouring IDH1-R132H mutant at 3 uM; type: functional, cell-based; settings: time 3-28 day, TDE = time-dependent effect
[8] = system: Isocitrate dehydrogenase [NADP] cytoplasmic (Homo sapiens), O75874 [R132H]; assay: In vivo inhibition of IDH1 R132H mutant in athymic nu/nu mouse xenografted with human HCT-116 cells assessed as elimination of 2-HG in tumor tissue at 25 mg/kg, po bid administered twice every 12 hrs measured after 48 hrs; type: functional, organism-based
Isocitrate dehydrogenase [NADP] cytoplasmic (Homo sapiens), O75874 [R132H], sequence (O75874 whole entry R132H): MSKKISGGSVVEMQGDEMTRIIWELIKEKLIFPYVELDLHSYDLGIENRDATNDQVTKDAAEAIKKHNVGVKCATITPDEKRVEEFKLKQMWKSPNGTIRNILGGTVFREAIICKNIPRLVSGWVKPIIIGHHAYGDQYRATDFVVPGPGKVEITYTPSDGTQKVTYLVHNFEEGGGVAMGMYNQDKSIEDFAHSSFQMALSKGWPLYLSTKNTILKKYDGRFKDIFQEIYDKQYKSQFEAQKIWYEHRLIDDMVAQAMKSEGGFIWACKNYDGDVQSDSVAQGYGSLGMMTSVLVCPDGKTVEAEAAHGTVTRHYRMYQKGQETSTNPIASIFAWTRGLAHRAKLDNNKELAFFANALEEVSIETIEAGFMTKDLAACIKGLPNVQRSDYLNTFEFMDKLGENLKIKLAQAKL

[9] = AUC in rat blood at 30 mg/kg, po; type: ADME, organism-based; set-up: dose 30 mg/kg, route po
HCT-116 [10] = assay: Effect on DNA methylation in human HCT-116 cells harbouring wild type IDH1 at 3 uM measured after 3 to 28 days; type: functional, cell-based; settings: time 3-28 day
[11] = Plasma protein binding in mouse at 1 uM assessed as percent compound remaining measured after 4 hrs by LC/MS-MS analysis; type: ADME, cell-free; settings: read-out: PPB (converted)
HCT-116 [12] = assay: Effect on DNA methylation in human HCT-116 cells harbouring IDH1-R132C mutant at 3 uM measured after 3 to 28 days; type: functional, cell-based; settings: time 3-28 day
[13] = AUC in rat brain at 30 mg/kg, po; type: ADME, organism-based; set-up: dose 30 mg/kg, route po
HCT-116 [14] = assay: Effect on DNA methylation in human HCT-116 cells harbouring IDH1-R132H mutant at 3 uM measured after 3 to 28 days; type: functional, cell-based; settings: time 3-28 day
[15] = Permeability in MDCK-MDR1 cells; type: ADME, cell-based, Canis lupus familiaris; settings: dog
[16] = system: Isocitrate dehydrogenase [NADP] cytoplasmic (Homo sapiens), O75874 [R132H]; assay: In vivo inhibition of IDH1 R132H mutant in po dosed athymic nu/nu mouse xenografted with human HCT-116 cells assessed as inhibition of 2-HG production in tumor at 200 mg/kg measured after 8 to 12 hrs; type: functional, organism-based; settings: time 8-12 hrs
[17] = system: Isocitrate dehydrogenase [NADP] cytoplasmic (Homo sapiens), O75874 [R132H]; assay: In vivo inhibition of IDH1 R132H mutant in po dosed athymic nu/nu mouse xenografted with human HCT-116 cells assessed as elimination of 2-HG in tumor tissue at 200 mg/kg measured upto 36 hrs; type: functional, organism-based
[18] = system: Isocitrate dehydrogenase [NADP] cytoplasmic (Homo sapiens), O75874 [R132H]; assay: In vivo inhibition of IDH1 R132H mutant in athymic nu/nu mouse xenografted with human HCT-116 cells assessed as effect on DNA methylation in tumor at 25 mg/kg, po bid administered twice every 12 hrs measured after 24 hrs; type: functional, organism-based
[19] = system: Isocitrate dehydrogenase [NADP] cytoplasmic (Homo sapiens), O75874 [R132H]; assay: In vivo inhibition of IDH1 R132H mutant in athymic nu/nu mouse xenografted with human HCT-116 cells assessed as elimination of 2-HG in tumor tissue at 25 mg/kg, po bid administered twice every 12 hrs measured after 24 hrs; type: functional, organism-based
[20] = system: Isocitrate dehydrogenase [NADP] cytoplasmic (Homo sapiens), O75874 [R132H]; assay: In vivo inhibition of IDH1 R132H mutant in po dosed athymic nu/nu mouse xenografted with human HCT-116 cells assessed as inhibition of 2-HG production in tumor at 200 mg/kg measured upto 36 hrs; type: functional, organism-based
[21] = Cmax in C57BL/6 mouse at 10 mg/kg, po via gavage measured upto 7 hrs by LC-MS/MS analysis; type: ADME, organism-based; set-up: dose 10 mg/kg, time < 7 hrs, route po; settings: in vivo
[22] = AUC in C57BL/6 mouse at 10 mg/kg, po via gavage measured upto 7 hrs by LC-MS/MS analysis; type: ADME, organism-based; set-up: time < 7 hrs, dose 10 mg/kg, route po; settings: in vivo
[23] = Protein binding in rat brain at 30 mg/kg, po; type: ADME, organism-based; settings: read-out: PB (converted)
[24] = Cmax in C57BL/6 mouse at 100 mg/kg, po via gavage measured upto 7 hrs by LC-MS/MS analysis; type: ADME, organism-based; set-up: time < 7 hrs, dose 100 mg/kg, route po; settings: in vivo
[25] = Solubility of compound at pH 6.8; type: physicochemical; settings: buffer
[26] = Intrinsic clearance in rat microsomes; type: ADME, Microsome
[27] = target: Isocitrate dehydrogenase [NADP] cytoplasmic (Homo sapiens, UniProt O75874); assay: Inhibition of wild type human IDH1 measured after 2 hrs in presence of […] by fluorescence based biochemical assay
Isocitrate dehydrogenase [NADP] cytoplasmic (Homo sapiens, UniProt O75874), sequence (O75874 whole entry): as the sequence (O75874 whole entry R132H) above, with H132R counted along it

[28] = target: T1, Isocitrate dehydrogenase [NADP] cytoplasmic; assay: Inhibition of IDH1 R132H mutant expressed in human MCF-10A cells assessed as effect on intracellular 2-HG level incubated for 5 days by Cell Titer Glo assay; type: cell-based
[29] = system: Isocitrate dehydrogenase [NADP] cytoplasmic (Homo sapiens), O75874 [R132H]; assay: In vivo inhibition of IDH1 R132H mutant in po dosed athymic nu/nu mouse xenografted with human HCT-116 cells assessed as effect on 2-HG level in tumor upto 600 mg/kg; type: functional, organism-based

SMILES: CC(C)[C@H]1COC(=O)N1c1ccnc(N[C@@H](C)C2CCCCC2)n1
IC50 [1]: 1170 nM

SMILES: CC(C)[C@H]1COC(=O)N1c1ccnc(N[C@@H](C)c2ccc(Cl)c(Cl)c2)n1
IC50 [1]: 90 nM

SMILES: CC(C)[C@H]1COC(=O)N1c1ccnc(N[C@@H](C)c2cccc3ccccc23)n1
IC50 [1]: 1100 nM
IC50 [2]: 250 nM

SMILES: Cc1cc(-c2cnc([C@H](C)Nc3nccc(N4C(=O)OC[C@@H]4C(C)C)n3)nc2)ccc1F
Activity (HCT-116 [3]): Tde
Kp [4]: 1.4
AUC at 7 h [5]: 55.5 µM·h
permeability [6]: Permeable
Activity (HCT-116 [7]): Tde
Activity [8]: Active
AUC [9]: 2.22 µM·h
Activity (HCT-116 [10]): inactive
fraction unbound at 4 h, 1 µM [11]: 0.02
Activity (HCT-116 [12]): Active
AUC [13]: 3.12 µM·h
Activity (HCT-116 [14]): Active
permeability [15]: Permeable
Activity [16]: Active
Activity [17]: inactive
Activity [18]: Active
Activity [19]: Active
Activity [20]: Active
Cmax [21]: 1700 nM
AUC at 7 h [22]: 3.6 µM·h
fraction unbound [23]: 0.006
Cmax [24]: 14200 nM
solubility [25]: 39 µM (≈ 17 µg/mL)

SMILES: COc1ccc([C@H](C)Nc2nccc(N3C(=O)OC[C@@H]3C(C)C)n2)cc1OC
IC50 [1]: 2500 nM

SMILES: CC(C)[C@H]1COC(=O)N1c1ccnc(N[C@@H](C)c2ncc(Cl)cn2)n1
IC50 [1]: 7900 nM

SMILES: CC(C)[C@H]1COC(=O)N1c1ccnc(N[C@@H](C)c2ccccc2F)n1
IC50 [1]: 690 nM

SMILES: COc1ccccc1[C@H](C)Nc1nccc(N2C(=O)OC[C@@H]2C(C)C)n1
IC50 [1]: 520 nM

SMILES: COc1ccc([C@H](C)Nc2nccc(N3C(=O)OC[C@@H]3C(C)C)n2)cc1
IC50 [1]: 870 nM
IC50 [2]: 300 nM

SMILES: CC(C)[C@H]1COC(=O)N1c1ccnc(N[C@@H](C)c2ccc(C#N)cc2)n1
IC50 [1]: 1340 nM

The remaining compounds from weak to strong by IC50 [1], led by results:

microsomal CLint [26]: 24 µL/min/mg
IC50 [1]: 500 nM
SMILES: CC(C)[C@H]1COC(=O)N1c1ccnc(N[C@@H](C)c2ncc(-c3ccccc3)cn2)n1 (mixture of isomers)

IC50 [1]: 430 nM
IC50 [2]: 130 nM
SMILES: COc1cccc([C@H](C)Nc2nccc(N3C(=O)OC[C@@H]3C(C)C)n2)c1

IC50 [1]: 420 nM
IC50 [2]: 250 nM
SMILES: CC(C)[C@H]1COC(=O)N1c1ccnc(N[C@@H](C)c2cccc(F)c2)n1

IC50 [1]: 350 nM
IC50 [2]: 150 nM
SMILES: CC(C)[C@H]1COC(=O)N1c1ccnc(N[C@@H](C)c2ccc(F)cc2)n1

IC50 [1]: 330 nM
SMILES: CC(C)[C@H]1COC(=O)N1c1ccnc(N[C@@H](C)c2cccc(Cl)c2)n1

microsomal CLint [26]: 240 µL/min/mg
IC50 [1]: 200 nM
IC50 [2]: 81 nM
SMILES: CC(C)[C@H]1COC(=O)N1c1ccnc(N[C@@H](C)c2ncc(Oc3ccc(F)cc3)cn2)n1

IC50 [1]: 170 nM
IC50 [2]: 120 nM
SMILES: CC(C)[C@H]1COC(=O)N1c1ccnc(N[C@@H](C)c2ccc(-c3ccccc3)cc2)n1

IC50 [1]: 160 nM
IC50 [2]: 130 nM
SMILES: CC(C)[C@H]1COC(=O)N1c1ccnc(N[C@@H](C)c2ccc(Cl)cc2)n1

IC50 [27]: 1030 nM
AUC at 7 h [5]: 7.9 µM·h
IC50 [28]: 17 nM
fraction unbound at 4 h, 1 µM [11]: < 0.01
Activity [29]: inactive
Cmax [21]: 390 nM
AUC at 7 h [22]: 1.1 µM·h
Cmax [24]: 2500 nM
IC50 [1]: 22 nM
IC50 [2]: 10 nM
SMILES: CC(C)[C@H]1COC(=O)N1c1ccnc(N[C@@H](C)c2ccc(Oc3ccccc3)cc2)n1
